Legend:
[1] = system: maximum electroshock seizure (MES) model; test: Maximum electroshock seizure (MES) model test; assay type: in vivo, mice; details: for responders at 50 mg/kg / responders at 100 mg/kg: Mus musculus, po, 1 h, read-out: MES (positive number/tested number) (converted); for responders at 50 mg/kg / responders at 100 mg/kg / MES (positive number/tested number): Slc: ddY male mice, 3 per group, electrical stimulation 1 hour after administration, inhibition of hind limb extension
Description: In order to evaluate the antiepileptic activity of each drug, maximum electroshock seizure (MES) model, subcutaneously pentetrazol-injected model (scPTZ), and amygdala kindling model in rats were used because they show a good clinical prediction.
Test 1: Test with Maximum Electroshock Seizure (MES) Model
Test 1 evaluates the anticonvulsant action of medicaments. Animal model used herein represents the clinical phenotypes of generalized tonic seizure and secondarily generalized tonic-clonic seizure. Test compounds (50 or 100 mg/kg) were orally administered to Slc: ddY male mice (3 mice in each group, body weight 20-30 g). After an hour of administration, their corneas were electrically stimulated (60 Hz, 25 mA, 0.2 second) to induce tonic convulsion (tonic extensor in their hind limbs). […] To the control mice, 0.5% tragacanth solution or 0.5% methylcellulose solution was administered.

[2] = system: subcutaneously pentetrazol-injected model (scPTZ); test: Subcutaneously pentetrazol-injected model (scPTZ) test; assay type: in vivo, mice; details: pentetrazol 85 mg/kg s.c. after 1 hour; for responders at 50 mg/kg / responders at 100 mg/kg: Mus musculus, po, 1 h, read-out: scPTZ (positive number/tested number) (converted); for responders at 50 mg/kg / responders at 100 mg/kg / scPTZ (positive number/tested number): Slc: ddY male mice, 3 per group, observed 30 minutes for clonic convulsion
Description: In order to evaluate the antiepileptic activity of each drug, maximum electroshock seizure (MES) model, subcutaneously pentetrazol-injected model (scPTZ), and amygdala kindling model in rats were used because they show a good clinical prediction. […] Test with Subcutaneously Pentetrazol-Injected Model (scPTZ) Similar to Test 1, Test 2 evaluates the anticonvulsant action of medicaments. However, unlike Test 1, animal model used herein represents the clinical phenotypes of generalized absence seizure and myoclonic seizure. Test compounds (50 or 100 mg/kg) were orally administered to Slc: ddY male mice (3 mice in each group, body weight 20-30 g). After an hour, pentetrazol (85 mg/kg) was subcutaneously administered. […] To the control mice, 0.5% tragacanth solution or 0.5% methylcellulose solution was administered.

SMILES	responders at 50 mg/kg ([1]; 50 mg/kg oral) [%]	responders at 100 mg/kg ([1]; 100 mg/kg oral) [%]	responders at 50 mg/kg ([2]; 50 mg/kg oral) [%]	responders at 100 mg/kg ([2]; 100 mg/kg oral) [%]	also measured
NC(=O)Cc1ccc(Cl)cc1-c1ccccc1F [Example 125, 2-(5-chloro-2′-fluorobiphenyl-2-yl)acetamide]	66.7	100	33.3	66.7	
CN(C)C(=O)Cc1ccccc1-c1cccc(Cl)c1 [Example 15]	0	66.7		0	
NC(=O)Cc1ccccc1-c1cc(F)cc(C(F)(F)F)c1 [Example 73, 2-[3′-fluoro-5′-(trifluoromethyl)biphenyl-2-yl]acetamide]	33.3	100	0	100	
NC(=O)[C@@H](O)c1ccccc1-c1cc(Cl)cc(Cl)c1 [Example 216, 2-(3′,5′-dichlorobiphenyl-2-yl)-2S-hydroxyacetamide]					MES (positive number/tested number) ([1]; 50 mg/kg oral): 1/3; MES (positive number/tested number) ([1]; 100 mg/kg oral): 2/3; scPTZ (positive number/tested number) ([2]; 50 mg/kg oral): 1/3; scPTZ (positive number/tested number) ([2]; 100 mg/kg oral): 1/3
CCNC(=O)Cc1ccccc1-c1ccccc1F [Example 29]	0	66.7		33.3	
NC(=O)Cc1ccccc1-c1ccc(OC(F)(F)F)cc1 [Example 76, 2-[4′-(trifluoromethoxy)biphenyl-2-yl]acetamide]	0	100	33.3	66.7	
CNC(=O)C1(c2ccccc2-c2cccc(F)c2)CC1 [Example 159, 1-(3′-fluorobiphenyl-2-yl)-N-methyl-cyclopropane-carboxamide]	33.3	66.7	33.3	66.7	
CNC(=O)Cc1ccccc1-c1ccc(Cl)cc1C(F)(F)F [Example 105]		0		66.7	
CNC(=O)Cc1ccccc1-c1cccc(Cl)c1 [Example 14]	0	100		0	
CN(C)C(=O)Cc1ccccc1-c1ccc(Cl)cc1 [Example 12]	0	100		33.3	
NC(=O)Cc1ccccc1-c1cc(Cl)ccc1F [Example 87, 2-(5′-chloro-2′-fluorobiphenyl-2-yl)acetamide]	33.3	100	0	66.7	
CNC(=O)Cc1c(F)cccc1-c1cccc(F)c1 [Example 141]		66.7		0	
Cc1cc(Cl)cc(-c2ccccc2CC(N)=O)c1F [Example 81]		33.3		0	
CC(C(N)=O)c1ccccc1-c1ccccc1 (stereo not shown) [Example 56, 2-(Biphenyl-2-yl)propanamide]	0	100	100	66.7	
NC(=O)Cc1ccccc1-c1cc(F)ccc1F [Example 152, 2-(2′,5′-difluorobiphenyl-2-yl)acetamide]	100	100	66.7	100	anticonvulsant action in maximum electroshock seizure (MES) model test ([1]; mice, oral 50 or 100 mg/kg, 1 hour after administration): anticonvulsant action was observed; anticonvulsant action in subcutaneously pentetrazol-injected model (scPTZ) test ([2]; mice, oral 50 or 100 mg/kg): anticonvulsant action was observed
CNC(=O)Cc1ccc(F)cc1-c1cccc(F)c1 [Example 121]	0	100		33.3	
CNC(=O)Cc1ccccc1-c1cccc(SC)c1 [Example 100]		0		100	
NC(=O)C(O)c1ccccc1-c1ccc(F)cc1 (stereo not shown) [Example 179]	33.3	100		33.3	
NC(=O)C(F)(F)c1ccccc1-c1cccc(F)c1 [Example 170, 2,2-difluoro-2-(3′-fluorobiphenyl-2-yl)acetamide]	0	100	33.3	66.7	

Source: patent publication US20120142771A1, “BIPHENYLACETAMIDE DERIVATIVE” (Dainippon Sumitomo Pharma Co., Ltd., priority 2008, published 2012)
